Consider one compound from patent US10426758B2, “Sibiriline derivatives for use for preventing and/or treating disorders associated with cellular necroptosis” (Institut National de la Sante et de la Recherche Medicale …, priority 2015, dated 2019).

The structures appear in SMILES notation.

Experiment in all cases: Competition binding assay for kinase targets of Sib (456 kinases)
What all share (details): remaining kinase on the matrix after competition, read-out: Percent Control (%)

One experiment addresses T1, AURKC (Homo sapiens, UniProt Q9UQB9).
T1 sequence (Q9UQB9 1-309): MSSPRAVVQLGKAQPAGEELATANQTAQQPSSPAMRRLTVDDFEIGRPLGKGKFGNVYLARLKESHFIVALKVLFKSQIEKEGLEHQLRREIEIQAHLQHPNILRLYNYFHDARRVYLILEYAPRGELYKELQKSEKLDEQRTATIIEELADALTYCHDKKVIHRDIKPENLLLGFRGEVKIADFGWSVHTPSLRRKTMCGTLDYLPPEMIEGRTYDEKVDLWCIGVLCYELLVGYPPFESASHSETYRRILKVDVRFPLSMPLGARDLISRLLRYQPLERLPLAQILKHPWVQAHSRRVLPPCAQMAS
The protocol:
(§1) The assay is performed by combining three components: DNA-tagged kinase (a total of 456 kinases were tested); immobilized ligand; and a test compound (here Sib). The ability of Sib to compete with the immobilized ligand is measured via quantitative PCR of the DNA tag.

The target of the next experiment is T2, DRAK2 (Homo sapiens, UniProt O94768).
T2 sequence (O94768 1-372): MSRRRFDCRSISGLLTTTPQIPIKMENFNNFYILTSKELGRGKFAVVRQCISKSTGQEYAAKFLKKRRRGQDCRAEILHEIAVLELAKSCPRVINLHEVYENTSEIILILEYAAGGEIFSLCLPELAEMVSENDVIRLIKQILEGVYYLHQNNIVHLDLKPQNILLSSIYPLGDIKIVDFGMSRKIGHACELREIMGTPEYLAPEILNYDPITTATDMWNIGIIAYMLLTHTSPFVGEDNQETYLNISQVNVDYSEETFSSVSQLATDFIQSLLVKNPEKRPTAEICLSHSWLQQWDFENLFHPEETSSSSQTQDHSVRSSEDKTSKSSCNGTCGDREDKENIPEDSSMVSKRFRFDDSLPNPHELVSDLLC
The protocol:
as §1

A further experiment deals with T3, EPHB6 (Homo sapiens, UniProt O15197).
T3 sequence (O15197 32-1021): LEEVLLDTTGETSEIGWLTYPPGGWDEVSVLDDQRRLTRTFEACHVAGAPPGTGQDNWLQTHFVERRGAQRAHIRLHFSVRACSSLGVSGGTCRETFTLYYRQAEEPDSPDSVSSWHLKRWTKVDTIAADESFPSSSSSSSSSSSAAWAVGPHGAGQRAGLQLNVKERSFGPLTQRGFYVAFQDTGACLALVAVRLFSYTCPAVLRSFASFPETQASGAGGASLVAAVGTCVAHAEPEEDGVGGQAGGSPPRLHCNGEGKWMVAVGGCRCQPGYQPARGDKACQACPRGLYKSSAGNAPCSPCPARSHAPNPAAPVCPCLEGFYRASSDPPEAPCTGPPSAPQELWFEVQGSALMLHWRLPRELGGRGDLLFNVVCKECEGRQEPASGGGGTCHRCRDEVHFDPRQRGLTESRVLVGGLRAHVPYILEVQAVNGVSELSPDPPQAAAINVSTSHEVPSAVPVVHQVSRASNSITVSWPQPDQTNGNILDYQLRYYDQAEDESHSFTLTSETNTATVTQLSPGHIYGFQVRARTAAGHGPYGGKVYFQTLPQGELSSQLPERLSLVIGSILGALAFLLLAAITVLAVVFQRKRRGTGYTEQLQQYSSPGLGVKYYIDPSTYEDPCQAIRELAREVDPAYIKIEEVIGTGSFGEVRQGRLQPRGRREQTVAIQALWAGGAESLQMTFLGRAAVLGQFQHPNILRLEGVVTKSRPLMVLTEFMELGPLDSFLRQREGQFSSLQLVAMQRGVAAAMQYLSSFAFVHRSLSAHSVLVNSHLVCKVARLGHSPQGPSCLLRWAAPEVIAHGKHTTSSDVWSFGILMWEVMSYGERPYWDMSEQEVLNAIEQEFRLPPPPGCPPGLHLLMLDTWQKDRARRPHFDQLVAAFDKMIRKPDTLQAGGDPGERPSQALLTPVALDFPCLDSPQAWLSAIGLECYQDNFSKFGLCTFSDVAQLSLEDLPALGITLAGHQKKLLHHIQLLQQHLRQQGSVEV
The protocol:
as §1

The target in a further experiment is KIT (Homo sapiens, UniProt P10721). The method, then: as §1
Sequence of KIT (P10721 26-976): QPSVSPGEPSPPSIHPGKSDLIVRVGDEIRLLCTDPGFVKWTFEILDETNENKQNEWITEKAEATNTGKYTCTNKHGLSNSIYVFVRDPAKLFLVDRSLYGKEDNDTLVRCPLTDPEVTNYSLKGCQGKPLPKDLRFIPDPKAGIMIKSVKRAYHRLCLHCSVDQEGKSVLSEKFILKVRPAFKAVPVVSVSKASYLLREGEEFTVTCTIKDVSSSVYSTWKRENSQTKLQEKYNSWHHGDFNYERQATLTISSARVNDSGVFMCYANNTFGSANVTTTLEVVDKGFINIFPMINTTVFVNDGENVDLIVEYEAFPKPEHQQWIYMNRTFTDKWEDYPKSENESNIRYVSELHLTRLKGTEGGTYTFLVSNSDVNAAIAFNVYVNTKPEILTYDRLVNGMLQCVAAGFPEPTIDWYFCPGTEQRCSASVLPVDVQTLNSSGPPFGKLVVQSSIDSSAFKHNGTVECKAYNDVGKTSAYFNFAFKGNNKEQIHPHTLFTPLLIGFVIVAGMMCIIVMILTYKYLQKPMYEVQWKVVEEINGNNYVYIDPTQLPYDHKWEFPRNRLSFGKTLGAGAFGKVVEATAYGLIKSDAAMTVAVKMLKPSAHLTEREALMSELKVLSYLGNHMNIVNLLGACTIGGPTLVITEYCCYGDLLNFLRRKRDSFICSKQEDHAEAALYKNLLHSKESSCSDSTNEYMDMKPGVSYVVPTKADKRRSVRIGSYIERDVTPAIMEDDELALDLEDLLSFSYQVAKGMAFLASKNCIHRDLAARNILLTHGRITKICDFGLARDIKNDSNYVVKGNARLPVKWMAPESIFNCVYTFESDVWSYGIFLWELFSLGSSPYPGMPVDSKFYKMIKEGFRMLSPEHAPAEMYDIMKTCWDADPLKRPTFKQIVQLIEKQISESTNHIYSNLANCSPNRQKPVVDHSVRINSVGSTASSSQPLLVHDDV
The next experiment addresses PDGFRB (Homo sapiens, UniProt P09619). The protocol:
as §1

The next experiment deals with T4, RIPK1 (Homo sapiens, UniProt Q13546).
T4 construct: purchased DiscoveRx Corporation (KdELECT service)
T4 sequence (Q13546 1-671): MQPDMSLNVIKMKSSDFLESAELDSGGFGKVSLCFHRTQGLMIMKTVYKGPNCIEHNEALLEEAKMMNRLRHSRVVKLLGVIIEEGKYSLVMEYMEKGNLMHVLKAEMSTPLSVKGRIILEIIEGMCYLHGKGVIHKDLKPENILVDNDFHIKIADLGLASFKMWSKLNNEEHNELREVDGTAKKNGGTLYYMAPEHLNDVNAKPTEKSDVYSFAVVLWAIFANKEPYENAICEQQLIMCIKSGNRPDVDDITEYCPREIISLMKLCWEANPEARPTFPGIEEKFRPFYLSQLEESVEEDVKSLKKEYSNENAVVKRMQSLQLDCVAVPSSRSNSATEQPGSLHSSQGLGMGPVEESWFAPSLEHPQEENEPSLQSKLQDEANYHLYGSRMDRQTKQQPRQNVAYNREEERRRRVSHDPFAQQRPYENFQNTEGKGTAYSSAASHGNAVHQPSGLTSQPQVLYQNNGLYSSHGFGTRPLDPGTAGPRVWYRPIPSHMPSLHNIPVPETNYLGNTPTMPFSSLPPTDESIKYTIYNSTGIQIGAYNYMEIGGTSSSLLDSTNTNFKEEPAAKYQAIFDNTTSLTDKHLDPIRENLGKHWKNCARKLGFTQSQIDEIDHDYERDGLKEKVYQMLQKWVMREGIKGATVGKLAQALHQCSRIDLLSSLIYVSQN
The protocol:
as §1

Sequence of PDGFRB (P09619 33-1106): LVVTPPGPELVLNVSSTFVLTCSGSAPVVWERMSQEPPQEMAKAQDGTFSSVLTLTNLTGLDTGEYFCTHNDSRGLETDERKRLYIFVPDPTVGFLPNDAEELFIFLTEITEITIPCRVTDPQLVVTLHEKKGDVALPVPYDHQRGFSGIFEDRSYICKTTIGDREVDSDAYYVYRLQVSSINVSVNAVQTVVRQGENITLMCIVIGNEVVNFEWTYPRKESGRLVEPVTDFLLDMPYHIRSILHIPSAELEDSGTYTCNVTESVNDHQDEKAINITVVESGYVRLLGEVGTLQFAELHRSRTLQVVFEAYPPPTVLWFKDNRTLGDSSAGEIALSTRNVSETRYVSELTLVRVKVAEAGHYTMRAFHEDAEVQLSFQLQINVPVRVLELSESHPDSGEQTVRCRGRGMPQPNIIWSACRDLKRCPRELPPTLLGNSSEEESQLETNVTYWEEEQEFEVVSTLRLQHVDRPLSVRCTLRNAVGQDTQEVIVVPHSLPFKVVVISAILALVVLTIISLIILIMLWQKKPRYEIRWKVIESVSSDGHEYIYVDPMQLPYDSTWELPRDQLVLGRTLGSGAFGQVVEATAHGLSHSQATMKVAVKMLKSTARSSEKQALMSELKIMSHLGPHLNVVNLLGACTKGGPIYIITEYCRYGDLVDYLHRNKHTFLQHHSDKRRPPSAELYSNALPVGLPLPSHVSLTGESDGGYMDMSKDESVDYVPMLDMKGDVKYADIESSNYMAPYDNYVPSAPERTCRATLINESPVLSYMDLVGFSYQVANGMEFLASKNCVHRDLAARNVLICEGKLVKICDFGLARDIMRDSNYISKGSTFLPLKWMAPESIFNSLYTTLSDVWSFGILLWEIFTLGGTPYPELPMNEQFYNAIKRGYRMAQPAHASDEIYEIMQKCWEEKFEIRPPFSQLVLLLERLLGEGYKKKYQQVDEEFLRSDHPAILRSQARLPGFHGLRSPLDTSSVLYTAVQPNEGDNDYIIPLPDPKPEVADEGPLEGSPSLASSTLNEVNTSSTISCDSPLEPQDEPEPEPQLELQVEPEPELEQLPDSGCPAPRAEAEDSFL

As for `Oc1ccc(-c2cc3cccnc3[nH]2)cc1` [compound 2, 4-(1H-pyrrolo[2,3-b]pyridin-2-yl)phenol], the remaining binding at 10 µM worked out at 0.7% on AURKC; 0.75% on DRAK2; 0.65% on EPHB6; 0.8% at KIT; 0.75% at PDGFRB; 0.2% on RIPK1.
